From patent publication US6355799B1, “Substituted benzene compounds, process for their preparation, and herbicidal and defoliant compositions containing them” (ISK Americas Incorporated, priority 1997, dated 2002)

Columns and labels:
Format in all cases: in vivo
[1] = system: field corn (Zea mays L., var. Dekalb 535, CORN); experiment: Pre-emerge test, crop safety; conditions: pre-emerge, 14 days after application, scale 0-100
How it was run: (§1)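 Herbicidal damage is scored 0 (none) to 100 (complete plant death) two weeks after a simulated field spray. Rates span 15–1000 g ai/ha, delivered in acetone at 187 l/ha. For post-emergence treatments, plants have 2–3 leaves and the spray carries 0.25% v/v non-ionic surfactant.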

[2] = system: upland rice (Oryza sp., var. Tebonnet, RICE); experiment: Pre-emerge test, crop safety; conditions: pre-emerge, 14 days after application, scale 0-100
How it was run: as §1

[3] = system: redroot pigweed (Amaranthus retroflexus, AMARE); experiment: Pre-emerge test, greenhouse herbicide activity screening; conditions: pre-emerge, 14 days after application, scale 0-100
How it was run: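 Visual ratings on a 0-100 scale (0 no damage, 100 all plants dead) were taken at 14 days after treatment. Rates of 15-1000 g ai/ha in acetone, 187 l/ha, were sprayed onto soil one day after planting (pre-emerge) or onto 2-3 leaf plants with 0.25% v/v surfactant (post-emerge).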

[4] = system: field corn (Zea mays L., var. Dekalb 535, CORN); experiment: Post-emerge test, crop safety; conditions: post-emerge, 14 days after application, rating scale 0-100
How it was run: (§2)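 Compounds in acetone were track-sprayed at 187 l/ha, 15–1000 g ai/ha, onto sandy loam pots. Pre-emerge seeds were sown one day before spraying, with surface watering afterwards. Post-emerge plants were at the 2–3 leaf stage and sprayed with 0.25% v/v non-ionic surfactant. Injury was rated 0–100 at 14 days.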

[5] = system: upland rice (Oryza sp., var. Tebonnet, RICE); experiment: Post-emerge test, crop safety; conditions: post-emerge, 14 days after application, rating scale 0-100
How it was run: as §2

[6] = system: lambsquarters (Chenopodium album, CHEAL); experiment: Post-emerge test, greenhouse herbicide activity screening; conditions: post-emerge, 14 days after application, rating scale 0-100
How it was run: (§3)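 Rating: 0–100 visual injury, 14 DAA. Application: acetone, 187 l/ha, 15–1000 g ai/ha, flat-fan track sprayer with nozzle 40–45 cm above soil or canopy. Post-emerge runs used 0.25% v/v surfactant on 2–3 leaf plants.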

[7] = system: large crabgrass (Digitaria sanguinalis, DIGSA); experiment: as above; conditions: post-emerge, 14 days after application, rating scale 0-100
How it was run: as §3

[8] = system: redroot pigweed (Amaranthus retroflexus, AMARE); experiment: as above; conditions: post-emerge, 14 days after application, rating scale 0-100
How it was run: as §3

[9] = system: sicklepod (Cassia obtusifolia, CASOB); experiment: as above; conditions: post-emerge, 14 days after application, rating scale 0-100
How it was run: as §3

[10] = system: green foxtail (Setaria viridis, SETVI); experiment: as above; conditions: post-emerge, 14 days after application, rating scale 0-100
How it was run: as §3

[11] = system: barnyardgrass (Echinochloa crus-galli, ECHCG); experiment: as above; conditions: post-emerge, 14 days after application, rating scale 0-100
How it was run: as §3

[12] = system: ivyleaf morningglory (Ipomoea hederacea, IPOHE); experiment: as above; conditions: post-emerge, 14 days after application, rating scale 0-100
How it was run: as §3

[13] = system: velvetleaf (Abutilon theophrasti, ABUTH); experiment: as above; conditions: post-emerge, 14 days after application, rating scale 0-100
How it was run: as §3

[14] = system: johnsongrass (Sorghum halepense, SORHA); experiment: as above; conditions: post-emerge, 14 days after application, rating scale 0-100
How it was run: as §3

[15] = system: lambsquarters (Chenopodium album, CHEAL); experiment: Pre-emerge test, greenhouse herbicide activity screening; conditions: pre-emerge, 14 days after application, scale 0-100
How it was run: as §2

[16] = system: large crabgrass (Digitaria sanguinalis, DIGSA); experiment: as above; conditions: pre-emerge, 14 days after application, scale 0-100
How it was run: as §2

[17] = system: sicklepod (Cassia obtusifolia, CASOB); experiment: as above; conditions: pre-emerge, 14 days after application, scale 0-100
How it was run: as §2

[18] = system: green foxtail (Setaria viridis, SETVI); experiment: as above; conditions: pre-emerge, 14 days after application, scale 0-100
How it was run: as §2

[19] = system: barnyardgrass (Echinochloa crus-galli, ECHCG); experiment: as above; conditions: pre-emerge, 14 days after application, scale 0-100
How it was run: as §2

[20] = system: ivyleaf morningglory (Ipomoea hederacea, IPOHE); experiment: as above; conditions: pre-emerge, 14 days after application, scale 0-100
How it was run: as §2

[21] = system: velvetleaf (Abutilon theophrasti, ABUTH); experiment: as above; conditions: pre-emerge, 14 days after application, scale 0-100
How it was run: as §2

[22] = system: johnsongrass (Sorghum halepense, SORHA); experiment: as above; conditions: pre-emerge, 14 days after application, scale 0-100
How it was run: as §2

COc1c(Br)cc(F)c(-n2c(=O)cc(C(F)(F)F)n(C)c2=O)c1N(C(=O)C=Cc1ccccc1)C(=O)C=Cc1ccccc1 [2-176]
phytotoxicity rating CORN (crop damage) ([1]; 63 g ai/ha): 0
phytotoxicity rating CORN (crop damage) ([1]; 250 g ai/ha): 0
phytotoxicity rating RICE (crop damage) ([2]; 63 g ai/ha): 0
phytotoxicity rating RICE (crop damage) ([2]; 250 g ai/ha): 0
phytotoxicity rating AMARE ([3]; 63 g ai/ha): 50
phytotoxicity rating AMARE ([3]; 250 g ai/ha): 90
CORN phytotoxicity rating (crop damage) ([4]; 63 g ai/ha): 0
CORN phytotoxicity rating (crop damage) ([4]; 250 g ai/ha): 5
RICE phytotoxicity rating (crop damage) ([5]; 63 g ai/ha): 10
RICE phytotoxicity rating (crop damage) ([5]; 250 g ai/ha): 30
CHEAL phytotoxicity rating ([6]; 63 g ai/ha): 80
CHEAL phytotoxicity rating ([6]; 250 g ai/ha): 90
DIGSA phytotoxicity rating ([7]; 63 g ai/ha): 0
DIGSA phytotoxicity rating ([7]; 250 g ai/ha): 0
AMARE phytotoxicity rating ([8]; 63 g ai/ha): 100
AMARE phytotoxicity rating ([8]; 250 g ai/ha): 100
CASOB phytotoxicity rating ([9]; 63 g ai/ha): 10
CASOB phytotoxicity rating ([9]; 250 g ai/ha): 30
SETVI phytotoxicity rating ([10]; 63 g ai/ha): 0
SETVI phytotoxicity rating ([10]; 250 g ai/ha): 0
ECHCG phytotoxicity rating ([11]; 63 g ai/ha): 0
ECHCG phytotoxicity rating ([11]; 250 g ai/ha): 0
IPOHE phytotoxicity rating ([12]; 63 g ai/ha): 70
IPOHE phytotoxicity rating ([12]; 250 g ai/ha): 95
ABUTH phytotoxicity rating ([13]; 63 g ai/ha): 50
ABUTH phytotoxicity rating ([13]; 250 g ai/ha): 90
SORHA phytotoxicity rating ([14]; 63 g ai/ha): 0
SORHA phytotoxicity rating ([14]; 250 g ai/ha): 0
phytotoxicity rating CHEAL ([15]; 63 g ai/ha): 90
phytotoxicity rating CHEAL ([15]; 250 g ai/ha): 100
phytotoxicity rating DIGSA ([16]; 63 g ai/ha): 0
phytotoxicity rating DIGSA ([16]; 250 g ai/ha): 20
phytotoxicity rating CASOB ([17]; 63 g ai/ha): 0
phytotoxicity rating CASOB ([17]; 250 g ai/ha): 0
phytotoxicity rating SETVI ([18]; 63 g ai/ha): 0
phytotoxicity rating SETVI ([18]; 250 g ai/ha): 20
phytotoxicity rating ECHCG ([19]; 63 g ai/ha): 0
phytotoxicity rating ECHCG ([19]; 250 g ai/ha): 0
phytotoxicity rating IPOHE ([20]; 63 g ai/ha): 0
phytotoxicity rating IPOHE ([20]; 250 g ai/ha): 40
phytotoxicity rating ABUTH ([21]; 63 g ai/ha): 0
phytotoxicity rating ABUTH ([21]; 250 g ai/ha): 70
phytotoxicity rating SORHA ([22]; 63 g ai/ha): 0
phytotoxicity rating SORHA ([22]; 250 g ai/ha): 0

COc1c(Br)cc(F)c(-n2c(=O)cc(C(F)(F)F)n(C)c2=O)c1NC(=O)C=Cc1ccccc1 [2-177]
phytotoxicity rating CORN (crop damage) ([1]; 63 g ai/ha): 0
phytotoxicity rating CORN (crop damage) ([1]; 250 g ai/ha): 10
phytotoxicity rating RICE (crop damage) ([2]; 63 g ai/ha): 10
phytotoxicity rating RICE (crop damage) ([2]; 250 g ai/ha): 20
phytotoxicity rating AMARE ([3]; 63 g ai/ha): 100
phytotoxicity rating AMARE ([3]; 250 g ai/ha): 100
CORN phytotoxicity rating (crop damage) ([4]; 63 g ai/ha): 15
CORN phytotoxicity rating (crop damage) ([4]; 250 g ai/ha): 20
RICE phytotoxicity rating (crop damage) ([5]; 63 g ai/ha): 50
RICE phytotoxicity rating (crop damage) ([5]; 250 g ai/ha): 60
CHEAL phytotoxicity rating ([6]; 63 g ai/ha): 100
CHEAL phytotoxicity rating ([6]; 250 g ai/ha): 100
DIGSA phytotoxicity rating ([7]; 63 g ai/ha): 30
DIGSA phytotoxicity rating ([7]; 250 g ai/ha): 50
AMARE phytotoxicity rating ([8]; 63 g ai/ha): 100
AMARE phytotoxicity rating ([8]; 250 g ai/ha): 100
CASOB phytotoxicity rating ([9]; 63 g ai/ha): 100
CASOB phytotoxicity rating ([9]; 250 g ai/ha): 100
SETVI phytotoxicity rating ([10]; 63 g ai/ha): 45
SETVI phytotoxicity rating ([10]; 250 g ai/ha): 60
ECHCG phytotoxicity rating ([11]; 63 g ai/ha): 20
ECHCG phytotoxicity rating ([11]; 250 g ai/ha): 40
IPOHE phytotoxicity rating ([12]; 63 g ai/ha): 100
IPOHE phytotoxicity rating ([12]; 250 g ai/ha): 100
ABUTH phytotoxicity rating ([13]; 63 g ai/ha): 100
ABUTH phytotoxicity rating ([13]; 250 g ai/ha): 100
SORHA phytotoxicity rating ([14]; 63 g ai/ha): 30
SORHA phytotoxicity rating ([14]; 250 g ai/ha): 40
phytotoxicity rating CHEAL ([15]; 63 g ai/ha): 100
phytotoxicity rating CHEAL ([15]; 250 g ai/ha): 100
phytotoxicity rating DIGSA ([16]; 63 g ai/ha): 30
phytotoxicity rating DIGSA ([16]; 250 g ai/ha): 70
phytotoxicity rating CASOB ([17]; 63 g ai/ha): 0
phytotoxicity rating CASOB ([17]; 250 g ai/ha): 40
phytotoxicity rating SETVI ([18]; 63 g ai/ha): 40
phytotoxicity rating SETVI ([18]; 250 g ai/ha): 70
phytotoxicity rating ECHCG ([19]; 63 g ai/ha): 0
phytotoxicity rating ECHCG ([19]; 250 g ai/ha): 40
phytotoxicity rating IPOHE ([20]; 63 g ai/ha): 40
phytotoxicity rating IPOHE ([20]; 250 g ai/ha): 90
phytotoxicity rating ABUTH ([21]; 63 g ai/ha): 70
phytotoxicity rating ABUTH ([21]; 250 g ai/ha): 100
phytotoxicity rating SORHA ([22]; 63 g ai/ha): 0
phytotoxicity rating SORHA ([22]; 250 g ai/ha): 30
